The values that follow come from ChEMBL document CHEMBL2439969, “Replacement of Thr32 and Gln34 in the C-terminal neuropeptide Y fragment 25-36 by cis-cyclobutane and cis-cyclopentane β-amino acids shifts selectivity toward the Y(4) receptor” (J Med Chem, 2013).

Residues, ends and D or L forms follow the SMILES beside them. Some results are limits rather than exact numbers.

For assay [1], the target named is T1, Neuropeptide Y receptor type 4 (Homo sapiens, UniProt P50391). The experiment in a line: Displacement of Cy5-[K4]hPP from human Y4 receptor expressed in CHO cells after 90 to 120 mins by flow cytometry. The format is cell-based.
T1 sequence (P50391 whole entry): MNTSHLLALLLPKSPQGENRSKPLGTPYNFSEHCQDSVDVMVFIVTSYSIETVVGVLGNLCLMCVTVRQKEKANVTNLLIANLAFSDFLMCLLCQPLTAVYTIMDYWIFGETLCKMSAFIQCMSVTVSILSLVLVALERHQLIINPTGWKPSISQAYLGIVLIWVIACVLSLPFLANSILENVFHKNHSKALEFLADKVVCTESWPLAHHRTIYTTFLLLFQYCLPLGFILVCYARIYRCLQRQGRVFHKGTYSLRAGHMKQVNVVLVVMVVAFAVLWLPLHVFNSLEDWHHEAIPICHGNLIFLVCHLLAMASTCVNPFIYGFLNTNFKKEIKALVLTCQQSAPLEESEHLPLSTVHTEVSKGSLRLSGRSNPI
For assay [2], the target named is T1, Neuropeptide Y receptor type 4. The experiment in a line: Binding affinity to human Y4 receptor.
In assay [3] the target is T2, Neuropeptide Y receptor type 5 (Homo sapiens, UniProt Q15761).
T2 sequence (Q15761 whole entry): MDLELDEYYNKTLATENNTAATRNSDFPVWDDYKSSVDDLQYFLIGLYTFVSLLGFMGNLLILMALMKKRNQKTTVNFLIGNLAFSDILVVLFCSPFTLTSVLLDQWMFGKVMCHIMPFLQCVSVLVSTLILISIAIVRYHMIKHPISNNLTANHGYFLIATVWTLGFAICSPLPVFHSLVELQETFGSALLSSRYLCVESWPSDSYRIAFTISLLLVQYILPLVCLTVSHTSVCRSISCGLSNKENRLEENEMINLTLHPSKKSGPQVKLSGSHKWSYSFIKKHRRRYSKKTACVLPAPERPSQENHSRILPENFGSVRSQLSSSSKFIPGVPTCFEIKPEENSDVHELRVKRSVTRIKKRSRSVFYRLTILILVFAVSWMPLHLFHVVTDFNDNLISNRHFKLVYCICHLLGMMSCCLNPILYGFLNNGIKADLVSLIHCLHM
The experiment in a line: Displacement of Cy5-pNPY from human Y5 receptor expressed in human HEC-1B cells after 90 to 120 mins by flow cytometry. The format is cell-based.

Assay [4] deals with T3, Neuropeptide Y receptor type 2 (Homo sapiens, UniProt P49146).
T3 sequence (P49146 whole entry): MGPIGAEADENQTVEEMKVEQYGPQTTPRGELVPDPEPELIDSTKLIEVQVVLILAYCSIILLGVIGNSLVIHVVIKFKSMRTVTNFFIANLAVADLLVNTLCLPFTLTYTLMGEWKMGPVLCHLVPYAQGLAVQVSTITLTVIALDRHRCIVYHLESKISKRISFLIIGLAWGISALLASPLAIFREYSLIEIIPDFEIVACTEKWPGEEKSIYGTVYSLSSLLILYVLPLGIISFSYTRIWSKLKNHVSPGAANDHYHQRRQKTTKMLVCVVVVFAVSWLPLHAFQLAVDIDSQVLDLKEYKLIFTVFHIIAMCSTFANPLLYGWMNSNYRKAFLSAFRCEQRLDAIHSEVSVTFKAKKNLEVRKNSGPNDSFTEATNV
The experiment in a line: Displacement of Cy5-pNPY from human Y2 receptor expressed in CHO cells after 90 to 120 mins by flow cytometry. The format is cell-based.

In assay [5] the target is T1, Neuropeptide Y receptor type 4. The experiment in a line: Agonist activity at human Y4 receptor.
In assay [6] the target is T4, Neuropeptide Y receptor type 1 (Homo sapiens, UniProt P25929).
T4 sequence (P25929 whole entry): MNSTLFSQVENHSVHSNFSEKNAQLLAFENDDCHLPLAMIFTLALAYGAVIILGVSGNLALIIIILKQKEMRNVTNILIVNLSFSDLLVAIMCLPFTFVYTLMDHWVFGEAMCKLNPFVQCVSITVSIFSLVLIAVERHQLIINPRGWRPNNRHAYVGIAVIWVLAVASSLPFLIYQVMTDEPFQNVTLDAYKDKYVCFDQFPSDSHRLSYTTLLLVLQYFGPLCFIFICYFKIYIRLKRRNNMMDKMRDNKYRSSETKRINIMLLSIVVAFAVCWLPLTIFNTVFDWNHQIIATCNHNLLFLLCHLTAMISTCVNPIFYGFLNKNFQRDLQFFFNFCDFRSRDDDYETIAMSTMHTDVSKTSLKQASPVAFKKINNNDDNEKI
The experiment in a line: Displacement of Cy5-pNPY from human Y1 receptor expressed in HEL cells after 90 to 120 mins by flow cytometry. The format is cell-based. A general note: In flow cytometry, cells or beads pass a laser one at a time.

For assay [7], the target named is T2, Neuropeptide Y receptor type 5. The experiment in a line: Binding affinity to Y5 receptor (unknown origin).
The target of assay [8] is T4, Neuropeptide Y receptor type 1. The experiment in a line: Binding affinity to Y1 receptor (unknown origin).
Assay [9] concerns the target T1, Neuropeptide Y receptor type 4. The experiment in a line: Partial agonist activity at human Y4 receptor expressed in sf9 cells assessed as hydrolysis of [gamma-33P]GTP after 2 mins by scintillation counting analysis.
Assay [10] has the same target. The experiment in a line: Partial agonist activity at human Y4 receptor expressed in sf9 cells assessed as hydrolysis of [gamma-33P]GTP after 2 mins by scintillation counting analysis relative to hPP.
Assay [11] addresses T3, Neuropeptide Y receptor type 2. The experiment in a line: Binding affinity to Y2 receptor (unknown origin) expressed in human LN319 cells by radioligand binding assay. Type of assay: cell-based.
A short description of assay [12]: Binding affinity to rabbit kidney Y2 receptor by radioligand binding assay. Further details: species or system Oryctolagus cuniculus.
Assay [13] has as its target T1, Neuropeptide Y receptor type 4. The experiment in a line: Agonist activity at human Y4 receptor expressed in sf9 cells assessed as hydrolysis of [gamma-33P]GTP after 2 mins by scintillation counting analysis.
For assay [14], the target named is T3, Neuropeptide Y receptor type 2. The experiment in a line: Binding affinity to human Y2 receptor expressed in human SMS-KAN cells by radioligand binding assay. Type of assay: cell-based.
Assay [15] in a line: Binding affinity to Y2 receptor (unknown origin). Further details: species or system Homo sapiens.

For `CC[C@H](C)[C@H](NC(=O)[C@H](CC(C)C)NC(=O)[C@H](CCSC)NC(=O)[C@H](CC(N)=O)NC(=O)[C@@H](NC(=O)[C@H](Cc1ccc(O)cc1)NC(=O)[C@H](CCCNC(=N)N)NC(=O)[C@H](CCCNC(=N)N)NC(=O)[C@H](CC(C)C)NC(=O)[C@H](CC(=O)O)NC(=O)[C@H](C)NC(=O)[C@H](C)NC(=O)[C@H](Cc1ccc(O)cc1)NC(=O)[C@H](CCC(N)=O)NC(=O)[C@H](C)NC(=O)[C@H](CCSC)NC(=O)[C@H](CCC(N)=O)NC(=O)[C@H](CCC(=O)O)NC(=O)[C@@H]1CCCN1C(=O)[C@@H](NC(=O)[C@H](C)NC(=O)[C@H](CC(N)=O)NC(=O)[C@H](CC(=O)O)NC(=O)CNC(=O)[C@@H]1CCCN1C(=O)[C@H](Cc1ccc(O)cc1)NC(=O)[C@@H](NC(=O)[C@@H]1CCCN1C(=O)[C@H](CCC(=O)O)NC(=O)[C@H](CC(C)C)NC(=O)[C@@H]1CCCN1C(=O)[C@H](C)N)C(C)C)[C@@H](C)O)[C@@H](C)O)C(=O)N[C@@H](CCCNC(=N)N)C(=O)N1CCC[C@H]1C(=O)N[C@@H](CCCNC(=N)N)C(=O)N[C@H](N)Cc1ccc(O)cc1` (HELM PEPTIDE1{A.P.L.E.P.V.Y.P.G.D.N.A.T.P.E.Q.M.A.Q.Y.A.A.D.L.R.R.Y.T.N.M.L.I.R.P.R.[N[C@H](Cc1ccc(O)cc1)N[*:1]]}$$$$V2.0), the Ki (usually the equilibrium dissociation constant of an inhibitor or competing ligand from its target) in assay [1] was greater than 1000 nM; in assay [2], 0.53 nM; in assay [3] it was 17 nM; in assay [4] it was greater than 5000 nM; in [6], 440 nM. Besides, the concentration for a half-maximal effect (EC50) – broadly, the concentration that produces a half-maximal response – in assay [5] was 11 nM.
For the compound `CC[C@H](C)[C@H](NC(=O)[C@H](Cc1ccc(O)cc1)NC(=O)[C@H](Cc1cnc[nH]1)NC(=O)[C@H](CCCNC(=N)N)NC(C)=O)C(=O)N[C@@H](CC(N)=O)C(=O)N[C@@H](CC(C)C)C(=O)N[C@H](C(=O)N[C@H](C(=O)N[C@@H](CCCNC(=N)N)C(=O)N[C@@H]1[C@H](C(=O)N[C@@H](CCCNC(=N)N)C(=O)N[C@@H](Cc2ccc(O)cc2)C(N)=O)[C@H]1C(=O)OC)[C@@H](C)O)[C@@H](C)CC` (HELM PEPTIDE1{[ac].R.H.Y.I.N.L.I.T.R.[COC(=O)[C@H]1[C@H](N[*:1])[C@@H]1C(=O)[*:2]].R.Y.[am]}$$$$V2.0), the inhibitory constant (Ki) in [7] was determined as 118 nM; in [8] it was 29 nM.
`CC[C@H](C)[C@H](NC(=O)[C@H](Cc1ccc(O)cc1)NC(=O)[C@H](Cc1cnc[nH]1)NC(=O)[C@H](CCCN=C(N)N)NC(C)=O)C(=O)N[C@@H](CC(N)=O)C(=O)N[C@@H](CC(C)C)C(=O)N[C@H](C(=O)N[C@H](C(=O)N[C@@H](CCCN=C(N)N)C(=O)N[C@H]1CCC[C@H]1C(=O)N[C@@H](CCCN=C(N)N)C(=O)N[C@@H](Cc1ccc(O)cc1)C(N)=O)[C@@H](C)O)[C@@H](C)CC` (HELM PEPTIDE1{[ac].R.H.Y.I.N.L.I.T.R.[O=C([C@@H]1CCC[C@@H]1N[*:1])[*:2]].R.Y.[am]}$$$$V2.0): the Ki in assay [1] was 10 nM; in assay [3], greater than 500 nM; in assay [4], greater than 1000 nM; in assay [6], greater than 1000 nM. Besides, the EC50 in assay [9] is 41 nM.
Take `CC[C@H](C)[C@H](NC(=O)[C@H](Cc1ccc(O)cc1)NC(=O)[C@H](Cc1cnc[nH]1)NC(=O)[C@H](CCCNC(=N)N)NC(C)=O)C(=O)N[C@@H](CC(N)=O)C(=O)N[C@@H](CC(C)C)C(=O)N[C@H](C(=O)N[C@H](C(=O)N[C@@H](CCCNC(=N)N)C(=O)N[C@H]1CCC[C@H]1C(=O)N[C@@H](CCCNC(=N)N)C(=O)N[C@@H](Cc1ccc(O)cc1)C(N)=O)[C@@H](C)O)[C@@H](C)CC` (HELM PEPTIDE1{[ac].R.H.Y.I.N.L.I.T.R.[O=C([C@@H]1CCC[C@@H]1N[*:1])[*:2]].R.Y.[am]}$$$$V2.0): the maximum response (Emax) (as a rule, the greatest response seen or fitted, relative to the assay's reference) in assay [10] amounted to 71%.
Turning to `CC[C@H](C)[C@H](NC(=O)[C@H](Cc1ccc(O)cc1)NC(=O)[C@H](Cc1cnc[nH]1)NC(=O)[C@H](CCCN=C(N)N)NC(C)=O)C(=O)N[C@@H](CC(N)=O)C(=O)N[C@@H](CC(C)C)C(=O)N[C@@H](CCCN=C(N)N)C(=O)N[C@@H]1[C@H](C(=O)N[C@@H](CCCN=C(N)N)C(=O)N[C@@H]2[C@H](C(=O)N[C@@H](CCCN=C(N)N)C(=O)N[C@@H](Cc3ccc(O)cc3)C(N)=O)[C@H]2C(=O)OC)[C@H]1C(=O)OC` (HELM PEPTIDE1{[ac].R.H.Y.I.N.L.R.[COC(=O)[C@H]1[C@H](N[*:1])[C@@H]1C(=O)[*:2]].R.[COC(=O)[C@H]1[C@H](N[*:1])[C@@H]1C(=O)[*:2]].R.Y.[am]}$$$$V2.0), the Ki in assay [7] stood at 617 nM; in [8], 50 nM.
On to `CCCC[C@H](NC(=O)[C@H](CC(N)=O)NC(=O)[C@@H](NC(=O)[C@H](Cc1ccc(O)cc1)NC(=O)[C@H](CCCNC(=N)N)NC(=O)[C@H](CCCNC(=N)N)NC(C)=O)[C@@H](C)CC)C(=O)N[C@@H](CC(C)C)C(=O)N[C@H](C(=O)N[C@@H](CCCNC(=N)N)C(=O)N1CCC[C@H]1C(=O)N[C@@H](CCCNC(=N)N)C(=O)N[C@@H](Cc1ccc(O)cc1)C(N)=O)[C@@H](C)O` (HELM PEPTIDE1{[ac].R.R.Y.I.N.[Nle].L.T.R.P.R.Y.[am]}$$$$V2.0), for which, in assay [10], the Emax stood at 70%. For the same compound, the Ki in assay [1] is 75 nM; in [3], greater than 1000 nM; in assay [4], greater than 1000 nM; in [6] it was 281 nM. In addition, in assay [9], the EC50 was found to be 53 nM.
Ac-RHYINLITRQRY-NH2: the Ki in assay [1] was greater than 1000 nM; in assay [3], greater than 1000 nM; in assay [4] it was 1510 nM; in assay [12] it was 10.2 nM; in assay [6], greater than 1000 nM; in assay [14], 7.1 nM. In addition, the IC50 (as a rule, the concentration that inhibits the measured activity by half) in assay [11] came to 132 nM. Besides, the EC50 in [13] amounted to 530 nM.
Ac-RHYINLIYRLRY-NH2 gave a 50% inhibitory concentration (IC50) in assay [15] of 12 nM.
